Test results published in BindingDB's records for patent US10364255 (Boehringer Ingleheim International, 2019).
pIC50: −log10 of the molar value.

Target: T1, Pantetheinase [T26I] (Homo sapiens, UniProt O95497, T26I)
T1 construct: gene VNN1
Assay: Enzymatic Assay
Protocol: Method 1:Vanin-1 Enzymatic Assay:The test compounds are dissolved in 100% DMSO at a concentration of 10 mM and in a first step diluted in DMSO to a concentration of 5 mM, followed by serial dilution steps in 100% DMSO. Dilution factor and number of dilution steps may vary according to needs. Typically 8 different concentrations by 1:5 dilutions are prepared, a further intermediate dilutions of the substances is carried out with assay buffer resulting in 1% final DMSO concentration in the assay. 0.15 nM of FLAG-tagged Vanin-1 (AA 22-493, T26I, produced internally) and test compounds are incubated at room temperature for 15 minutes in assay buffer (1 mM DTT, 0.0025% Brij-35, 50 mM HEPES, pH7.5). 3 μM D-Pantethine (Sigma, Cat#P2125-5G) in assay buffer is added and incubated for additional 30 minutes at room temperature. Reaction is stopped by adding equal volume of stop solution as the reaction mixture to reach 5 nM Nevirapine (as an internal standard) and 0.5% TFA. Assay plates are centrifuged for 2 minutes and the formation of pantothenic acid is detected by RapidFire Mass Spectrometry (mobile phase A: 0.1% formic acid in water, mobile phase B: 100% methanol) using graphitic carbon cartridge (Agilent Cat #G9206A).

T1 sequence (O95497 22-491 T26I limits assumed): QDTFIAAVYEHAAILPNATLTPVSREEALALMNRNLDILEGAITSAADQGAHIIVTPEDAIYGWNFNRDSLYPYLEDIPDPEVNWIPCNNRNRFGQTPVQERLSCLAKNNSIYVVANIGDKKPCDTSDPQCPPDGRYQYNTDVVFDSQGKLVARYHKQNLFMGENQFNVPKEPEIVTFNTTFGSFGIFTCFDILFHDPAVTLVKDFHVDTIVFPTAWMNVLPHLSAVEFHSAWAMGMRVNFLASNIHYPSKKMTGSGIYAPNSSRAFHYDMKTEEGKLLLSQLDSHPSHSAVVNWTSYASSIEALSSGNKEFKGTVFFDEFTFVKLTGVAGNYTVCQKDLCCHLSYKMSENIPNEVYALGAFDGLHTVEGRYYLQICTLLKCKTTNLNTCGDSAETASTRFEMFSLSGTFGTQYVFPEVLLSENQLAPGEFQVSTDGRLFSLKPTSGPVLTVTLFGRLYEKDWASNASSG

A pIC50 of 5.55 was found for `O=C(c1cnc2c(c1)OCCN2)N1CCCCC1` [US10364255, Ex. 3] in this work.
A pIC50 of 9.30 was found for `CC(=O)N(C)[C@H]1CCN(C(=O)c2cnc3c(c2)OCC(C)(C)N3)C1` [US10364255, Ex. 14] in this work.
A pIC50 of 8.89 was found for `CC(=O)N(C)[C@H]1CCN(C(=O)c2cnc3c(c2)O[C@H](C)CN3)C1` [US10364255, Ex. 32] in this work.
A pIC50 of 7.85 was found for `O=C(c1cnc2c(c1)OCCN2)N1CCC(c2ccncc2)C1` (stereo not drawn) [US10364255, Ex. 38] in this work.
A pIC50 of 8.09 was found for `CC(=O)N(C)[C@H]1CCN(C(=O)c2cnc3c(c2)OCCN3)C1` [US10364255, Ex. 39] in this work.
A pIC50 of 8.60 was found for `CC(=O)N(C)[C@H]1CCN(C(=O)c2cnc3c(c2)O[C@H](CO)CN3)C1` [US10364255, Ex. 41] in this work.
A pIC50 of 8.43 was found for `O=C(c1cnc2c(c1)O[C@H](CO)CN2)N1CCC(c2ccncc2)C1` (stereo partly drawn) [US10364255, Ex. 43] in this work.
A pIC50 of 8.77 was found for `CC(=O)N(C)[C@H]1CCN(C(=O)c2cnc3c(c2)OCCCN3)C1` [US10364255, Ex. 44] in this work.
